Laboratory results: PubChem BioAssay (NCI)
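Where inhibition never reached the appropriate level, the endpoint shown equals the highest concentration tested. Otherwise, values were interpolated linearly from a five-concentration, 48-hour dose response in 96-well plates. At the GI50, growth is halved. TGI: total growth inhibition.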

Experiments:
Test in all cases: DTP human tumour cell line panel, 48 h
RPMI-8226 leukemia = system: RPMI-8226 leukemia
OVCAR-8 ovarian = system: OVCAR-8 ovarian
MDA-MB-435 = system: MDA-MB-435
OVCAR-5 ovarian = system: OVCAR-5 ovarian
NCI/ADR-RES ovarian = system: NCI/ADR-RES ovarian
SF-295 CNS = system: SF-295 CNS
HS 578T breast = system: HS 578T breast
U251 CNS = system: U251 CNS
786-0 renal = system: 786-0 renal
T-47D breast = system: T-47D breast
MDA-MB-231 breast = system: MDA-MB-231 breast
MDA-MB-468 breast = system: MDA-MB-468 breast
SK-OV-3 ovarian = system: SK-OV-3 ovarian
NCI-H460 lung = system: NCI-H460 lung
NCI-H226 lung = system: NCI-H226 lung
SW-620 colon = system: SW-620 colon
CCRF-CEM leukemia = system: CCRF-CEM leukemia
SN12C renal = system: SN12C renal
IGROV1 ovarian = system: IGROV1 ovarian
LOX IMVI melanoma = system: LOX IMVI melanoma
UACC-257 melanoma = system: UACC-257 melanoma
SF-539 CNS = system: SF-539 CNS
KM12 colon = system: KM12 colon
SF-268 CNS = system: SF-268 CNS
HL-60(TB) leukemia = system: HL-60(TB) leukemia
HOP-62 NSCLC = system: HOP-62 NSCLC
SR leukemia = system: SR leukemia
SNB-75 CNS = system: SNB-75 CNS
NCI-H522 lung = system: NCI-H522 lung

## O=C1c2c(c3c4cc(F)ccc4oc3c3[nH]c4ccc(Br)cc4c23)C(=O)N1O
RPMI-8226 leukemia
  GI50: 1.86 µM
  TGI: > 100 µM
OVCAR-8 ovarian
  GI50: 1.47 µM
  TGI: > 100 µM
MDA-MB-435
  GI50: 4.91 µM
  TGI: > 100 µM
OVCAR-5 ovarian
  GI50: > 100 µM
  TGI: > 100 µM
NCI/ADR-RES ovarian
  GI50: 0.578 µM
  TGI: > 100 µM
SF-295 CNS
  GI50: 1.24 µM
  TGI: > 46.4 µM
HS 578T breast
  GI50: 2.42 µM
  TGI: > 34.9 µM
U251 CNS
  GI50: 0.641 µM
  TGI: > 100 µM
786-0 renal
  GI50: 3.84 µM
  TGI: > 50.6 µM
T-47D breast
  GI50: 3.22 µM
  TGI: > 100 µM
MDA-MB-231 breast
  GI50: 4.99 µM
  TGI: 64.3 µM
MDA-MB-468 breast
  GI50: 3.45 µM
  TGI: 23 µM
SK-OV-3 ovarian
  GI50: 3.72 µM
  TGI: 37.6 µM
NCI-H460 lung
  GI50: 0.393 µM
  TGI: > 100 µM
NCI-H226 lung
  GI50: 8.35 µM
  TGI: > 100 µM
SW-620 colon
  GI50: 0.477 µM
  TGI: > 100 µM
CCRF-CEM leukemia
  GI50: 0.193 µM
  TGI: > 100 µM
SN12C renal
  GI50: 0.473 µM
  TGI: > 100 µM
IGROV1 ovarian
  GI50: 1.05 µM
  TGI: > 100 µM
LOX IMVI melanoma
  GI50: 0.227 µM
  TGI: 1.4 µM
UACC-257 melanoma
  GI50: > 100 µM
  TGI: > 100 µM
SF-539 CNS
  GI50: 0.381 µM
  TGI: 4.34 µM
KM12 colon
  GI50: 5.89 µM
  TGI: > 100 µM
SF-268 CNS
  GI50: 0.844 µM
  TGI: > 100 µM
HL-60(TB) leukemia
  GI50: 6.07 µM
  TGI: > 100 µM
HOP-62 NSCLC
  GI50: 0.833 µM
  TGI: > 57.8 µM
SR leukemia
  GI50: 0.131 µM
  TGI: > 100 µM
SNB-75 CNS
  GI50: 0.656 µM
  TGI: 8.39 µM
NCI-H522 lung
  GI50: 0.286 µM
  TGI: 5.82 µM
